Measurements taken from patent US8148388B2, “2,4 (4,6) pyrimidine derivatives” (Janssen Pharmaceutica, N.V., priority 2004, dated 2012).
Like-named read-outs stand apart in the source and are kept apart here.

Legend:
Yes (h) = Yes (h) (Homo sapiens, UniProt P07947); assay: Yes human kinase assay (glass-fiber filter); format: biochemical; settings: test concentration of 10^−6M; read-out: C11 score (inhibition of Yes human)
Summary of the method: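 Yes (h) (5-10 mU) with 0.1 mg/ml poly(Glu, Tyr) 4:1 in 8 mM MOPS pH 7.0, 0.2 mM EDTA, 10 mM MgAcetate and [γ-^33P-ATP], 40 minutes at room temperature. Stopped with phosphoric acid; substrate-bound ^33P counted on glass-fiber filter by scintillation.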

Fes (h) = Fes (h) (Homo sapiens, UniProt P07332); assay: Fes human kinase assay (glass-fiber filter); format: biochemical; settings: test concentration of 10^−6M; read-out: C4 score (inhibition of Fes human)
Summary of the method: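 Human Fes (5–10 mU) was incubated with 0.1 mg/ml poly(Glu,Tyr) 4:1 in 8 mM MOPS pH 7.0, 0.2 mM EDTA, 10 mM Mg acetate and [γ-33P]ATP for 40 min at room temperature. The reaction was stopped with phosphoric acid, and substrate phosphorylation was quantified by filter binding and scintillation counting.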

Abl (h) = Abl (h) (Homo sapiens, UniProt P00519); assay: Abl human kinase assay (glass-fiber filter); format: biochemical; settings: test concentration of 10^−6M; read-out: C1 score (inhibition of Abl human)
Abl (h), sequence (P00519 whole entry): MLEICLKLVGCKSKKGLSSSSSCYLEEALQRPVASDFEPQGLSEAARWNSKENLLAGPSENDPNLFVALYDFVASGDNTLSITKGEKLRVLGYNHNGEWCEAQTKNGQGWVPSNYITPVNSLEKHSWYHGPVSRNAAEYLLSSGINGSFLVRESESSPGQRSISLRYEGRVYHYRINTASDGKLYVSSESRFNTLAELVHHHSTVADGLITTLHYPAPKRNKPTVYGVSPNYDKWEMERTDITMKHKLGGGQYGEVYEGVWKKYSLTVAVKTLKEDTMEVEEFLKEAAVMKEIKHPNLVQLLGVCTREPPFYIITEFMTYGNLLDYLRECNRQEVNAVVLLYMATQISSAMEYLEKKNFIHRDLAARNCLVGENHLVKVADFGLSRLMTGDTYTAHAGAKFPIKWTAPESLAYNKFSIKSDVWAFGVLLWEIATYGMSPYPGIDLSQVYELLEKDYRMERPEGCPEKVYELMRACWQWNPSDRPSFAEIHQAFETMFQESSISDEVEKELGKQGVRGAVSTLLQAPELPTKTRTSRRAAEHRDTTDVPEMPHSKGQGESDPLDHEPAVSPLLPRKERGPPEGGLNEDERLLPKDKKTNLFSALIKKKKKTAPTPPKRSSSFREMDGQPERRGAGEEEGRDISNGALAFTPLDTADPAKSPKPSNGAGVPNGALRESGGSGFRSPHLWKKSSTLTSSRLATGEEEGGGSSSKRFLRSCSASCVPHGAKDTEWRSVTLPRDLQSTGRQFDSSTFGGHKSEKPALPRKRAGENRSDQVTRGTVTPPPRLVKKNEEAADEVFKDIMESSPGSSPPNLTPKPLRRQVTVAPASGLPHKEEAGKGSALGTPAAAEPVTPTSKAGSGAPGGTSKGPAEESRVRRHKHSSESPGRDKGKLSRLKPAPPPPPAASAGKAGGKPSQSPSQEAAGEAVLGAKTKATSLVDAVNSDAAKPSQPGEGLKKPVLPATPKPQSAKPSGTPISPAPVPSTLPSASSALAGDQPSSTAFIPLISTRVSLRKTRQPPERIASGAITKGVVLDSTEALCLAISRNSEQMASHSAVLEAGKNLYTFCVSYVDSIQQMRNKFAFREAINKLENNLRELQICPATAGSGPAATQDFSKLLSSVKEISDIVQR

Lck (h) = Lck (h) (Homo sapiens, UniProt P06239); assay: Lck human kinase assay (glass-fiber filter); format: biochemical; settings: test concentration of 10^−6M; read-out: C9 score (inhibition of Lck human)
Summary of the method: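 Kinase activity measured as transfer of (^33P) from radiolabeled MgATP to substrate, captured on P30 glass-fiber filtermat, washed in 75 mM phosphoric acid and methanol, then scintillation counted.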

Lyn (h) = Lyn (h) (Homo sapiens, UniProt P07948); assay: Lyn human kinase assay (glass-fiber filter); format: biochemical; settings: test concentration of 10^−6M; read-out: C10 score (inhibition of Lyn human)
Lyn (h), sequence (P07948 whole entry): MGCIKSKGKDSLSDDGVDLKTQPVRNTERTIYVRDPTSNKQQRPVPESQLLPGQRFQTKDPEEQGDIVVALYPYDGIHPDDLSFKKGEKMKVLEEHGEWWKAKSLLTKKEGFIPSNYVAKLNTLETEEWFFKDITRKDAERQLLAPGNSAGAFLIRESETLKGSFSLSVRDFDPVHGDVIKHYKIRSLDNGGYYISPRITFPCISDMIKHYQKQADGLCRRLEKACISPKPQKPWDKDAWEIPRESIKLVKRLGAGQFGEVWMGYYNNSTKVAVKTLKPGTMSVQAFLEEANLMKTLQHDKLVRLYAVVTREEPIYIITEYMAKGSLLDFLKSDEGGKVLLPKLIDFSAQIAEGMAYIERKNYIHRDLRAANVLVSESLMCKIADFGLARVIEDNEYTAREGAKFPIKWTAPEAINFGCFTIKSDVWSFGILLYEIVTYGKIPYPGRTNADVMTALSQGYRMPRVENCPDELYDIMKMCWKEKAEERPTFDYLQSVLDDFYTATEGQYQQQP
Summary of the method: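 Human Lyn (5-10 mU) phosphorylating poly(Glu,Tyr) 4:1 at 0.1 mg/ml with [γ-33P]ATP (concentration as required) in 50 mM Tris pH 7.5, 10 mM Mg acetate, 40 min at room temperature. Stopped with phosphoric acid; substrate-bound radioactivity counted on glass-fibre filter.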

Fms (h) = Fms (h) (Homo sapiens, UniProt P07333); assay: Fms human kinase assay (glass-fiber filter); format: biochemical; settings: test concentration of 10^−6M; read-out: C7 score (inhibition of Fms human)
Fms (h), sequence (P07333 20-972): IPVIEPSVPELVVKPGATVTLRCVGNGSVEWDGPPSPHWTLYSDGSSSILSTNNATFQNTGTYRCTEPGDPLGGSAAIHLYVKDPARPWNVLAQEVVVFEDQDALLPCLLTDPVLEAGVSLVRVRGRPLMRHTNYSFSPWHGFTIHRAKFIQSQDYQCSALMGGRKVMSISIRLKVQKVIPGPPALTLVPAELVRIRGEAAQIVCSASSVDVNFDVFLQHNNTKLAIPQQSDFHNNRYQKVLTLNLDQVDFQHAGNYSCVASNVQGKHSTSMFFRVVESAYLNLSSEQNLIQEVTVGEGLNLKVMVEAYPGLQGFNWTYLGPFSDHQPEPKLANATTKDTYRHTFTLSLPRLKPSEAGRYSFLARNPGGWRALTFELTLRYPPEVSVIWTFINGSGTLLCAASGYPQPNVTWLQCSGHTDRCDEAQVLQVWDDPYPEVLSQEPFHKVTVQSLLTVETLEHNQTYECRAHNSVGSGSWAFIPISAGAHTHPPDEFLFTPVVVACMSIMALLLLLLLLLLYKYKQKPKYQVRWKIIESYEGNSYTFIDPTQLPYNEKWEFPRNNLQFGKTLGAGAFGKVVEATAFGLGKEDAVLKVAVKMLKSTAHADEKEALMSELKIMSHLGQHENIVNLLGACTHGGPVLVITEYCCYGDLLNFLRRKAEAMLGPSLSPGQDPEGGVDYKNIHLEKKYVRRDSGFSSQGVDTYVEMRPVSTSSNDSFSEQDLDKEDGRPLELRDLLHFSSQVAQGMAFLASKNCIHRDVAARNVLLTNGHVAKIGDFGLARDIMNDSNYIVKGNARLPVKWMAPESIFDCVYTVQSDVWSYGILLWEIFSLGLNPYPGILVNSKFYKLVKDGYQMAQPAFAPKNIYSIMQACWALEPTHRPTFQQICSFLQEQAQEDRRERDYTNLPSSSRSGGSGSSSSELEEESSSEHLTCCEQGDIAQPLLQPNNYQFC
Summary of the method: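 Radiometric filter-binding assay: Fms (5-10 mU) with 250 μM peptide substrate and [γ-33P]ATP in 8 mM MOPS pH 7.0, 10 mM Mg acetate, 40 min at room temperature. Reaction stopped with phosphoric acid; substrate-bound 33P counted on P30 filtermat.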

Flt3 (h) = Flt3 (h) (Homo sapiens, UniProt P36888); assay: Flt3 human kinase assay (glass-fiber filter); format: biochemical; settings: test concentration of 10^−6M; read-out: C6 score (inhibition of Flt3 human)
Summary of the method: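 Human Flt3 (5-10 mU) with 50 μM peptide substrate in 8 mM MOPS pH 7.0, 0.2 mM EDTA, 10 mM Mg acetate and [γ-33P]ATP (concentration as required), 40 min at room temperature. Reaction stopped with phosphoric acid; substrate 33P incorporation counted on P30 glass-fiber filter.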

cSRC (h) = cSRC (h) (Homo sapiens, UniProt P12931); assay: cSRC human kinase assay (glass-fiber filter); format: biochemical; settings: test concentration of 10^−6M; read-out: C3 score (inhibition of cSRC human)
cSRC (h), sequence (P12931 whole entry): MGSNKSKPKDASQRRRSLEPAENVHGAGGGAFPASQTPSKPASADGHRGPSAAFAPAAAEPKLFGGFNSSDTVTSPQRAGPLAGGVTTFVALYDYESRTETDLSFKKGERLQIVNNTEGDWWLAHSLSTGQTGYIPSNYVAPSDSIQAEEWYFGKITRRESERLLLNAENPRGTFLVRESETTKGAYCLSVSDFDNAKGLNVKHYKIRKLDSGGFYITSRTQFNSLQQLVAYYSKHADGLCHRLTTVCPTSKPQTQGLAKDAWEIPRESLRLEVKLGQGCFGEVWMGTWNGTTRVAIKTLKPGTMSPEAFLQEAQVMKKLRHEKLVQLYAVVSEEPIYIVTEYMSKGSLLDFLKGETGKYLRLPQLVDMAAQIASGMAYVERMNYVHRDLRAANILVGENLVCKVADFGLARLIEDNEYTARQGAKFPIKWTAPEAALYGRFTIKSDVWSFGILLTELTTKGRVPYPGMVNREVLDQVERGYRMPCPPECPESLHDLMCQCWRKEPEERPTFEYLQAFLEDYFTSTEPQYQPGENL
Summary of the method: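 Radiometric assay: kinase and substrate are incubated with [33P]ATP, with the reaction started by MgATP mix. The reaction is spotted on P30 filtermat, washed in 75 mM phosphoric acid and methanol, and the bound 33P is measured by scintillation counting.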

CSK (h) = CSK (h) (Homo sapiens, UniProt P41240); assay: CSK human kinase assay (glass-fiber filter); format: biochemical; settings: test concentration of 10^−6M; read-out: C2 score (inhibition of CSK human)
Protocol: In the glass-fiber filter technology the activity of the kinase of interest is measured using an appropriate substrate that is incubated with the aforementioned kinase protein in the presence of (^33P) radiolabeled ATP. (^33P) Phosphorylation of the substrate is subsequently measured as radioactivity bound on a glass fiber-filter.
All kinases are pre-diluted to a 10× working concentration prior to addition into the assay. The composition of the dilution buffer for each kinase is detailed below.
In a final reaction volume of 25 μl, CSK (h) (5-10 mU) is incubated with 50 mM Tris pH 7.5, 0.1 mM EGTA, 0.1 mM Na3VO4, 0.1% β-mercaptoethanol, 0.1 mg/ml poly(Glu, Tyr) 4:1, 10 mM MnCl2, 10 mM MgAcetate and [γ-^33P-ATP] (specific activity approx. 500 cpm/pmol, concentration as required). The reaction is initiated by the addition of the MgATP mix. After incubation for 40 minutes at room temperature, the reaction is stopped by the addition of 5 μl of a 3% phosphoric acid solution. 10 μl of the reaction is then spotted onto a Filtermat A and washed three times for 5 minutes in 75 mM phosphoric acid and once in methanol prior to drying and scintillation counting.

[1] = not given; remark: listed apart in the source
EGFR (h) = EGFR (h) (Homo sapiens, UniProt P00533); assay: EGFR human kinase assay (glass-fiber filter); format: biochemical; settings: test concentration of 10^−6M; read-out: C4 score (inhibition of EGFR human)
EGFR (h), sequence (P00533 25-1210): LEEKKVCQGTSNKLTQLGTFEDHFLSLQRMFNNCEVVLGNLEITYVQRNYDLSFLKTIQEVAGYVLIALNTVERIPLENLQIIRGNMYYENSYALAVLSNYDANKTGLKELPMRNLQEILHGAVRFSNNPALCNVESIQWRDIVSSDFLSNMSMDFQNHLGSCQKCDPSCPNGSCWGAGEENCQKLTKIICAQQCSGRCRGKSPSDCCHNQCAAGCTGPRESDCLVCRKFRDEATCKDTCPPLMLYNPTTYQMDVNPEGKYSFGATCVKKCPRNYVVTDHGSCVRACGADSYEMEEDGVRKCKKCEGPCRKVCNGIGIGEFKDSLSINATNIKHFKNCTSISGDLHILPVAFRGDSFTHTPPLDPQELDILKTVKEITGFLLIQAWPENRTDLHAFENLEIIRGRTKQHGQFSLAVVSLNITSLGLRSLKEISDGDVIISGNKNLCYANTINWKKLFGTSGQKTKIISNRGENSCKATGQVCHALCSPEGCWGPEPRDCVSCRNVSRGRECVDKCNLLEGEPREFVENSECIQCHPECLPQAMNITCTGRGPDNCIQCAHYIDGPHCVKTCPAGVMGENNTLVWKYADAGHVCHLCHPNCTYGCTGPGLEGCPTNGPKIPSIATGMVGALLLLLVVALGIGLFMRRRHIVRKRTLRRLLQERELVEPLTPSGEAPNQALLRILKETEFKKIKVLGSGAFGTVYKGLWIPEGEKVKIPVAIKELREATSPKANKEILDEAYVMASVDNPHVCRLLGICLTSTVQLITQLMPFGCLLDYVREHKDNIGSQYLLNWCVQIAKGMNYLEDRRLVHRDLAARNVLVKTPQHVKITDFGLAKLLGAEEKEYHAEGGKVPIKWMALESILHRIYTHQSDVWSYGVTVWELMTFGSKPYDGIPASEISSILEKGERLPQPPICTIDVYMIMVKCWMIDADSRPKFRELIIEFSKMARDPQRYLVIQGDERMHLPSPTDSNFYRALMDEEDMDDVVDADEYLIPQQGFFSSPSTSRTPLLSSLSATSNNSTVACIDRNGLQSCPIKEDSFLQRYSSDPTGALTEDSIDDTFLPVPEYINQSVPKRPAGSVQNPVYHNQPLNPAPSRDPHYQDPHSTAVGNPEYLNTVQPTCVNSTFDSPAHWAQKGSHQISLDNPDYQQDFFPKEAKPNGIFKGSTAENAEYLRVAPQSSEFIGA
Summary of the method: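 Human EGFR (5-10 mU) phosphorylated 0.1 mg/ml poly(Glu, Tyr) 4:1 in 8 mM MOPS pH 7.0, 0.2 mM EDTA, 10 mM MnCl2, 10 mM MgAcetate with [γ-33P]ATP at unspecified concentration. Incubation lasted 40 minutes at room temperature, was stopped with phosphoric acid, and filter-bound 33P was counted by scintillation.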

EGFR-kinase domain = target: T1, EGFR-kinase domain (Homo sapiens, UniProt P00533); assay: In vitro inhibition of EGFR (Flash Plate assay); format: biochemical; settings: full dose response 1.10^−6M to 1.10^−10M, read-out: C12 EGFR flash Score
T1 construct: 0.5 μg EGFR-kinase domain/well
Protocol: The in vitro inhibition of EGFR was assessed using either the Flash Plate technology or the glass-fiber filter technology as described by Davies, S. P. et al., Biochem J. (2000), 351; p. 95-105. The Flash Plate technology is generally described by B. A. Brown et al. in High Throughput Screening (1997), p. 317-328. Editor(s): Devlin, John P. Publisher: Dekker, New York, N.Y.
In the Flash Plate EGFR kinase reaction assay, a kinase substrate consisting of biotinylated poly(L-glutamic acid-L-tyrosine) (poly(GT)biotin), is incubated with the aforementioned protein in the presence of (^33P) radiolabeled ATP. (^33P) phosphorylation of the substrate is subsequently measured as light energy emitted using a streptavidin-coated Flash Plate (PerkinElmer Life Sciences) by trapping and quantifying the binding of the biotin tagged and radiolabeled substrate.
The EGFR kinase reaction is performed at 30° C. for 60 minutes in a 96-well microtiter FlashPlate (PerkinElmer Life Sciences). For each of the tested compounds a full dose response 1.10^−6M to 1.10^−10M has been performed. IRESSA® and Tarceva™ (erlotinib) were used as reference compounds. The 100 μl reaction volume contains 54.5 mM TrisHCl pH 8.0, 10 mM MgCl2, 100 μM Na3VO4, 5.0 μM unlabeled ATP, 1 mM DTT, 0.009% BSA, 0.8 μCi AT^33P, 0.35 μg/well poly(GT)biotin and 0.5 μg EGFR-kinase domain/well.
The reaction is stopped by aspirating the reaction mixture and washing the plate 3× with 200 μl wash/stop buffer (PBS+100 mM EDTA). After the final wash step 200 μl of wash/stop buffer was added to each well and the amount of phosphorylated (^33P) Poly(GT)biotin determined by counting (30 sec/well) in a microtiterplate scintillation counter.

ErbB2 (h) = ErbB2 (h) (Homo sapiens, UniProt P04626); assay: ErbB2 human kinase assay (filter); format: biochemical; settings: read-out: C13 ERBB 2 Filter Score
Protocol: (§1) Similarly to the above the in vitro inhibition of two other kinases, i.e. human ErbB2 and human ErbB4 was tested for some of the compounds according to the invention.
(§2) In a final reaction volume of 25 μl, ErbB2 (h) (5-10 mU) is incubated with 8 mM MOPS pH 7.0, 0.2 mM EDTA, 10 mM MnCl2, 0.1 mg/ml poly(Glu, Tyr) 4:1, 10 mM MgAcetate and [γ-33P-ATP] (specific activity approx. 500 cpm/pmol, concentration as required). The reaction is initiated by the addition of the MgATP mix. After incubation for 40 minutes at room temperature, the reaction is stopped by the addition of 5 μl of a 3% phosphoric acid solution. 10 μl of the reaction is then spotted onto a Filtermat A and washed three times for 5 minutes in 75 mM phosphoric acid and once in methanol prior to drying and scintillation counting.

ErbB4 (h) = ErbB4 (h) (Homo sapiens, UniProt Q15303); assay: ErbB4 human kinase assay (filter); format: biochemical; settings: read-out: C14 ERBB 4 Filter Score
Protocol: as §1
as §2, with “ErbB4” for “ErbB2”

Yes (h), sequence (P07947 whole entry): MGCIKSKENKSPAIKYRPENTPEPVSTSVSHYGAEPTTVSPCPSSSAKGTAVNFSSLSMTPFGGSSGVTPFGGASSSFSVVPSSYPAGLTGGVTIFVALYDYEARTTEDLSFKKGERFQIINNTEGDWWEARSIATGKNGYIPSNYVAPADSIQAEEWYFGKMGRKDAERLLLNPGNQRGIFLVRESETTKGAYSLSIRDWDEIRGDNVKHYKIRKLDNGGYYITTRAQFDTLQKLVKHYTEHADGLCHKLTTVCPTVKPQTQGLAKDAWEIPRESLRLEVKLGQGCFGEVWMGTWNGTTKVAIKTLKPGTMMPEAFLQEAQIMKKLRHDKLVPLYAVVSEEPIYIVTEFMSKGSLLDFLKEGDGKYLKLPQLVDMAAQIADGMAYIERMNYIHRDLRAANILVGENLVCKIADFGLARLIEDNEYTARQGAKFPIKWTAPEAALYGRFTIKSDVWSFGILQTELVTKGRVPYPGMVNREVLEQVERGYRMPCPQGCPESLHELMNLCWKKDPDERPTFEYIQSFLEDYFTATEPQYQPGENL

## COCCOc1ccc2cc1OCCCCCN(C)Cc1cc(F)c(Cl)cc1Nc1cc(ncn1)N2
From COCCOc1ccc(Nc2cc(Nc3cc(Cl)c(F)cc3CN(C)CCCCCO)ncn2)cc1O, ether bond, 1,1'-(azodicarbonyl)dipiperidine (ADDP)/tributylphosphine, THF, 28.6 mM, 25.0 °C, 64.0 h
  ring closure, yield of all isomers: 44%

## COc1ccc2cc1OCCNC(=O)C(Cc1ccccc1)NCc1cccc(c1)Nc1cc(ncn1)N2 (stereo not shown)
From COc1ccc(Nc2cc(Nc3cccc(CNC(Cc4ccccc4)C(=O)O)c3)ncn2)cc1OCCN, amide bond, HBTU, DMF, 3.85 mM, 1.0 h
  ring closure, yield of all isomers: 14%

## O=C1COc2cccc(c2)Nc2nccc(n2)Nc2cccc(c2)OCCCCN1 [Compound 4, 14,22-dioxa-2,4,8,19,29-pentaazatetracyclo[21.3.1.1˜3,7˜.1˜9,13˜]nonacosa-1(27),3,5,7(29),9,11,13(28),23,25-nonaen-20-one]
From NCCCCOc1cccc(Nc2ccnc(Nc3cccc(OCC(=O)O)c3)n2)c1, amide bond, HBTU, DMF, 7.67 mM, 25.0 °C, 2.0 h
  ring closure, yield of all isomers: 9%
Yes (h)
  inhibition at 1 µM: 30 to 60%
Fes (h)
  inhibition at 1 µM: 30 to 60%
Abl (h)
  inhibition at 1 µM: 10 to 30%
Lck (h)
  inhibition at 1 µM: 30 to 60%
Lyn (h)
  inhibition at 1 µM: 10 to 30%
Fms (h)
  inhibition at 1 µM: 60 to 80%
Flt3 (h)
  inhibition at 1 µM: > 80%
cSRC (h)
  inhibition at 1 µM: 30 to 60%

## N#Cc1cnc2nc1Nc1cccc(c1)C(=O)NCC(=O)NCc1cccc(c1)N2 [Compound 5, 2,4,8,15,18,26-hexaazatetracyclo[18.3.1.1˜3,7˜.1˜9,13˜]hexacosa-1(24),3,5,7(26),9,11,13(25),20,22-nonaene-6-carbonitrile, 14,17-dioxo-]
From N#Cc1cnc(Nc2cccc(CNC(=O)CN)c2)nc1Nc1cccc(C(=O)O)c1, amide bond, HBTU, DMF, 22.5 mM, 25.0 °C, 3.0 h
  ring closure, yield of all isomers: 14%
Flt3 (h)
  inhibition at 1 µM: 10 to 30%

## O=C1NCCCCCCNC(=O)c2cccc(c2)Nc2cc(ncn2)Nc2cccc1c2 [Compound 8, 2,4,6,8,15,22-hexaazatetracyclo[22.3.1.1˜3,7˜.1˜9,13˜]triaconta-1(28),3,5,7(30),9,11,13(29),24,26-nonaene-14,23-dione]
From NCCCCCCNC(=O)c1cccc(Nc2cc(Nc3cccc(C(=O)O)c3)ncn2)c1, amide bond, PyBOP, DMF, 3.45 mM, 25.0 °C, 1.5 h
  ring closure, yield of all isomers: 33.7%
CSK (h)
  inhibition at 1 µM: 10 to 30%
Yes (h)
  inhibition at 1 µM: 10 to 30%
[1]
  melting point: 307 °C
Abl (h)
  inhibition at 1 µM: 10 to 30%
Lyn (h)
  inhibition at 1 µM: 10 to 30%
Fms (h)
  inhibition at 1 µM: 30 to 60%
EGFR (h)
  inhibition at 1 µM: 10 to 30%

## COc1ccc2cc1OCCCNCCOc1ccc(Cl)cc1Nc1cc(ncn1)N2 [Compound 13, 1H,7H-6,2:8,12-dimetheno-13,20,1,3,5,7,17-benzodioxapentaazacyclodocosine, 23-chloro-14,15,16,17,18,19-hexahydro-11-methoxy-]
Yes (h)
  inhibition at 1 µM: > 80%
[1]
  melting point: > 260 °C
Abl (h)
  inhibition at 1 µM: 10 to 30%
Lck (h)
  inhibition at 1 µM: 30 to 60%
Lyn (h)
  inhibition at 1 µM: > 80%
EGFR (h)
  inhibition at 1 µM: > 80%
cSRC (h)
  inhibition at 1 µM: 10 to 30%

## COc1ccc2cc1OCCNC(=O)COc1cccc(c1)Nc1cc(ncn1)N2 [Compound 162]
EGFR-kinase domain
  IC50: < 1000 nM
ErbB2 (h)
  IC50: 1000 to 10000 nM
ErbB4 (h)
  IC50: 1000 to 10000 nM
